From patent US20040121931A1, “Aqueous perborate bleach composition” (Unilever Home & Persona Care USA, Division of Conopco, Inc., priority 2002, published 2004) come the findings set out here.

This series is described as follows: Iterative determination of perborate solubility in water and polyol/water (visual). It is filed as physicochemical. The method, then: An iterative process was used to determine the extent of perborate solubilty in water and polyol/water. 1.5 g of Na perborate monohydrate was added either to 100 g of water (Table 1A) or to 90 g water and 10 g sorbitol (70% active) (Table 1B). The mixture was stirred until all of sodium perborate monohydrate was dissolved. A 0.5 g aliquot of sodium perborate monohydrate was then added to the solution while stirring and visually monitored to see if all the added sodium perborate monohydrate dissolves. If the aliquot dissolved, another 0.5 g of sodium perborate monohydrate would be added. This procedure was continued until the added perborate no longer appeared to dissolve.

Setting [1] is: 1.50 g in 90 g water + 10 g sorbitol (70%), perborate/sorbitol 1/3.55.
Setting [2] is: 3.50 g in 90 g water + 10 g sorbitol (70%), perborate/sorbitol 1/1.01.
The mark [3] stands for this setting: 5.50 g in 90 g water + 10 g sorbitol (70%), perborate/sorbitol 1.43/1.
[4] abbreviates: 8.00 g in 90 g water + 10 g sorbitol (70%), perborate/sorbitol 2.09/1.
Setting [5] is: 8.50 g in 90 g water + 10 g sorbitol (70%), perborate/sorbitol 2.22/1.
Setting [6] is: 9.50 g in 90 g water + 10 g sorbitol (70%), perborate/sorbitol 2.49/1.

The structures appear in SMILES notation.

`O.O=BO[O-].[Na+]` [Sodium Perborate monohydrate, sodium perborate monohydrate]: the Appearance result is, setting by setting: under setting [1], “Clear solution”; (1.5 g in 100 g water) “Clear solution”; (2.0 g in 100 g water) “Precipitate formed”; under setting [2], “Clear solution”; under setting [3], “Clear solution”; under setting [4], “Clear solution”. The Appearance entry is, setting by setting: under setting [5], “Precipitate”; under setting [6], “Precipitate”. The pH by setting is: under setting [1], 8.30; (1.5 g in 100 g water) 10.00; (2.0 g in 100 g water) 10.06; under setting [2], 9.33; under setting [3], 9.56; under setting [4], 9.60. Moreover, the pH by setting is: under setting [5], 9.60; under setting [6], 9.60. Also, the “solubility in water, in the presence of polyol” value (90 g water and 10 g sorbitol (70% active)) was “up to 8.5 g”. Further, the “increase of solubility of perborate by polyol” value (aqueous environment, with sorbitol vs without) was “about 400%”. Also, the solubility in water result (in 100 g water, no polyol) was “below 2.0 g”.
